pEC50: −log10 of the molar value. Converted amounts (≈) assume the structure as drawn. The source made the active and inactive calls. No cut-off for these calls is given here. Bridge positions count the residues as written; N and C are the ends. Peptide text beside a SMILES is read from it. I, II: the chains in the order shown. * marks the point of attachment. Octanoyl = CCCCCCCC(=O)*
What was measured:
[1] = Toxicity in New Zealand white rabbit erythrocytes assessed as hemolytic activity after 60 mins; assay type: cell-based, Oryctolagus cuniculus; conditions: erythrocyte, 1 h
Klebsiella pneumoniae [2] = assay: Antibacterial activity against Klebsiella pneumoniae DM4299 after 24 hrs by broth microdilution method; assay type: functional; conditions: DM4299, 24 h
Pseudomonas aeruginosa [3] = assay: Antibacterial activity against Pseudomonas aeruginosa DM23155 after 24 hrs by broth microdilution method; assay type: functional; conditions: DM23155, 24 h
Escherichia coli [4] = assay: Antibacterial activity against Escherichia coli ATCC 25922 after 24 hrs by broth microdilution method; assay type: functional; conditions: ATCC 25922, 24 h
Pseudomonas aeruginosa [5] = assay: Antibacterial activity against Pseudomonas aeruginosa DR18531 after 24 hrs by broth microdilution method; assay type: functional; conditions: DR18531, 24 h
Pseudomonas aeruginosa [6] = assay: Antibacterial activity against Pseudomonas aeruginosa DM4150R after 24 hrs by broth microdilution method; assay type: functional
Pseudomonas aeruginosa [7] = assay: Antibacterial activity against Pseudomonas aeruginosa DM23257 after 24 hrs by broth microdilution method; assay type: functional; conditions: DM23257, 24 h
Pseudomonas aeruginosa [8] = assay: Antibacterial activity against Pseudomonas aeruginosa DM23376 after 24 hrs by broth microdilution method; assay type: functional; conditions: DM23376, 24 h
Pseudomonas aeruginosa [9] = assay: Antibacterial activity against Pseudomonas aeruginosa DU14476 after 24 hrs by broth microdilution method; assay type: functional; conditions: DU14476, 24 h
Pseudomonas aeruginosa [10] = assay: Antibacterial activity against Pseudomonas aeruginosa DR5790 after 24 hrs by broth microdilution method; assay type: functional; conditions: DR5790, 24 h
Pseudomonas aeruginosa [11] = assay: Antibacterial activity against Pseudomonas aeruginosa DR4877 after 24 hrs by broth microdilution method; assay type: functional; conditions: DR4877, 24 h
Pseudomonas aeruginosa [12] = assay: Antibacterial activity against Pseudomonas aeruginosa ATCC 9027 after 24 hrs by broth microdilution method; assay type: functional; conditions: ATCC 9027, 24 h
Pseudomonas aeruginosa [13] = assay: Antibacterial activity against Pseudomonas aeruginosa ATCC 27853 after 24 hrs by broth microdilution method; assay type: functional; conditions: ATCC 27853, 24 h
Escherichia coli [14] = assay: Antibacterial activity against Escherichia coli DS17232 after 24 hrs by broth microdilution method; assay type: functional; conditions: DS17232, 24 h
Escherichia coli [15] = assay: Antibacterial activity against Escherichia coli DM17528 after 24 hrs by broth microdilution method; assay type: functional; conditions: DM17528, 24 h
Klebsiella pneumoniae [16] = assay: Antibacterial activity against Klebsiella pneumoniae DS07955 after 24 hrs by broth microdilution method; assay type: functional; conditions: DS07955, 24 h
Klebsiella pneumoniae [17] = assay: Antibacterial activity against Klebsiella pneumoniae DS16260 after 24 hrs by broth microdilution method; assay type: functional; conditions: DS16260, 24 h
Klebsiella pneumoniae [18] = assay: Antibacterial activity against Klebsiella pneumoniae DU31158 after 24 hrs by broth microdilution method; assay type: functional; conditions: DU31158, 24 h
Klebsiella pneumoniae [19] = assay: Antibacterial activity against Klebsiella pneumoniae DB55301 after 24 hrs by broth microdilution method; assay type: functional; conditions: DB55301, 24 h
Lipopolysaccharide (LPS) [20] = assay: Displacement of dansylcadaverine from Escherichia coli 0111:B4 LPS at 15 to 30 uM after 5 mins by high-throughput fluorescence displacement assay
Lipopolysaccharide (LPS) [21] = assay: Induction of Escherichia coli 0111:B4 LPS neutralization using p-nitroaniline assessed as concentration required to neutralize 50% after 1 hr by limulus amebocyte lysate assay
Pseudomonas aeruginosa [22] = assay: Induction of cytoplasmic membrane depolarization in Pseudomonas aeruginosa DM23155 at 4 times MIC after 1 hr by fluorescence assay; assay type: functional, organism-based
Pseudomonas aeruginosa [23] = assay: Induction of cytoplasmic membrane disruption in Pseudomonas aeruginosa DM23155 assessed as membrane integrity at 1 to 2 times MIC after 1 hr by fluorescence assay; assay type: functional
[24] = Induction of calcein leakage from DOPE/DOPG artificial membrane at 1:32 ratio of compound to lipid by fluorescence assay; assay type: physicochemical
[25] = Induction of calcein leakage from DOPC artificial membrane at 1:32 ratio of compound to lipid by fluorescence assay; assay type: physicochemical
Pseudomonas aeruginosa [26] = assay: Antibacterial activity against Pseudomonas aeruginosa DM23155 assessed as log reduction of viable count at 2 times MIC after 30 mins by time-kill assay relative to control; assay type: functional
Pseudomonas aeruginosa [27] = assay: Antibacterial activity against Pseudomonas aeruginosa DM23155 assessed as log reduction of viable count MIC up to 24 hrs by time-kill assay; assay type: functional, organism-based
Pseudomonas aeruginosa [28] = assay: Antibacterial activity against Pseudomonas aeruginosa DM23155 assessed as log reduction of viable count at 2 times MIC after 24 hrs by time-kill assay; assay type: functional, organism-based
[29] = Toxicity in human corneal fibroblasts assessed as cell viability at > 2000 uM after 4 hrs by ATP luminescent assay; assay type: cell-based; conditions: fibroblast
[30] = Toxicity in human corneal fibroblasts assessed as cell viability at > 2000 uM after 4 hrs by LDH assay; assay type: cell-based; conditions: fibroblast
Mus musculus [31] = assay: Corneal toxicity in mouse at 1 to 3 mg/ml applied topically 5 times per day measured 24 hrs after last dose; assay type: organism-based; conditions: in vivo, topical_or_ocular
Mus musculus [32] = assay: Corneal toxicity in mouse at 6.25 mg/kg, iv measured 24 hrs after last dose; assay type: organism-based; conditions: in vivo
Mus musculus [33] = assay: Corneal toxicity in mouse at 100 mg/kg, ip measured 24 hrs after last dose; assay type: organism-based; conditions: in vivo
Pseudomonas aeruginosa [34] = assay: Antibacterial activity against Pseudomonas aeruginosa DM23155 after 24 hrs by checkerboard assay in presence of nalidixic acid; assay type: functional
Pseudomonas aeruginosa [35] = assay: Antibacterial activity against Pseudomonas aeruginosa DM23155 after 24 hrs by checkerboard assay in presence of gentamicin; assay type: functional
Pseudomonas aeruginosa [36] = assay: Antibacterial activity against Pseudomonas aeruginosa DM23155 after 24 hrs by checkerboard assay in presence of erythromycin; assay type: functional
Pseudomonas aeruginosa [37] = assay: Antibacterial activity against Pseudomonas aeruginosa DM23155 after 24 hrs by checkerboard assay in presence of streptomycin; assay type: functional
Pseudomonas aeruginosa [38] = assay: Antibacterial activity against Pseudomonas aeruginosa DM23155 after 24 hrs by checkerboard assay in presence of kanamycin; assay type: functional
Escherichia coli [39] = assay: Antibacterial activity against Escherichia coli ATCC 25922 after 24 hrs by checkerboard assay in presence of nalidixic acid; assay type: functional
Escherichia coli [40] = assay: Antibacterial activity against Escherichia coli ATCC 25922 after 24 hrs by checkerboard assay in presence of gentamicin; assay type: functional
Escherichia coli [41] = assay: Antibacterial activity against Escherichia coli ATCC 25922 after 24 hrs by checkerboard assay in presence of erythromycin; assay type: functional
Escherichia coli [42] = assay: Antibacterial activity against Escherichia coli ATCC 25922 after 24 hrs by checkerboard assay in presence of streptomycin; assay type: functional
Escherichia coli [43] = assay: Antibacterial activity against Escherichia coli ATCC 25922 after 24 hrs by checkerboard assay in presence of kanamycin; assay type: functional

MIC (Klebsiella pneumoniae [2]): 3 µM (≈ 7.63 µg/mL)
MIC (Pseudomonas aeruginosa [3]): 3 µM (≈ 7.63 µg/mL)
MIC (Escherichia coli [4]): 6 µM (≈ 15.3 µg/mL)
MIC (Pseudomonas aeruginosa [5]): 1.5 µM (≈ 3.81 µg/mL)
MIC (Pseudomonas aeruginosa [6]): 3 µM (≈ 7.63 µg/mL)
MIC (Pseudomonas aeruginosa [7]): 3 µM (≈ 7.63 µg/mL)
MIC (Pseudomonas aeruginosa [8]): 3 µM (≈ 7.63 µg/mL)
MIC (Pseudomonas aeruginosa [9]): 3 µM (≈ 7.63 µg/mL)
MIC (Pseudomonas aeruginosa [10]): 3 µM (≈ 7.63 µg/mL)
MIC (Pseudomonas aeruginosa [11]): 3 µM (≈ 7.63 µg/mL)
MIC (Pseudomonas aeruginosa [12]): 3 µM (≈ 7.63 µg/mL)
MIC (Pseudomonas aeruginosa [13]): 3 µM (≈ 7.63 µg/mL)
MIC (Escherichia coli [14]): 10 µM (≈ 25.4 µg/mL)
MIC (Escherichia coli [15]): 10 µM (≈ 25.4 µg/mL)
MIC (Klebsiella pneumoniae [16]): 10 µM (≈ 25.4 µg/mL)
MIC (Klebsiella pneumoniae [17]): 3 µM (≈ 7.63 µg/mL)
MIC (Klebsiella pneumoniae [18]): 10 µM (≈ 25.4 µg/mL)
MIC (Klebsiella pneumoniae [19]): 10 µM (≈ 25.4 µg/mL)
Activity (Lipopolysaccharide (LPS) [20]): 121%
pEC50 (Lipopolysaccharide (LPS) [21]): 4.13
Activity [24]: Active
Activity [25]: Active
Structure (SMILES): CCCCCCCC(=O)N[C@@H](CCCNC(=N)N)C(=O)NCC(=O)N[C@@H](CCCNC(=N)N)C(=O)N[C@@H](CCCCN)C(=O)N[C@H](C(=O)N[C@H](C(=O)N[C@@H](CCCNC(=N)N)C(=O)N[C@@H](CCCNC(=N)N)C(=O)NCCCC[C@H](NC(=O)[C@H](CCCNC(=N)N)NC(=O)[C@H](CCCNC(=N)N)NC(=O)[C@@H](NC(=O)[C@@H](NC(=O)[C@H](CCCCN)NC(=O)[C@H](CCCNC(=N)N)NC(=O)CNC(=O)[C@H](CCCNC(=N)N)NC(=O)CCCCCCC)C(C)C)C(C)C)C(=O)N[C@@H](CCCCN)C(=O)O)C(C)C)C(C)C (I: Octanoyl-RGRKVVRRKK-OH / II: Octanoyl-RGRKVVRR; amide I:9-II:C)
HC10 [1]: > 10000 µg/mL
Activity (Pseudomonas aeruginosa [22]): Active
Activity (Pseudomonas aeruginosa [23]): >80%
FC (Pseudomonas aeruginosa [26]): 3
Activity (Pseudomonas aeruginosa [27]): Dose-dependent effect
Activity (Pseudomonas aeruginosa [28]): Active
Activity [29]: > 2000 µM
Activity [30]: > 2000 µM
Activity (Mus musculus [31]): Non-toxic
Activity (Mus musculus [32]): Non-toxic
Activity (Mus musculus [33]): Non-toxic
fractional inhibitory concentration index (FICI) (Pseudomonas aeruginosa [34]): 0.5
fractional inhibitory concentration index (FICI) (Pseudomonas aeruginosa [35]): 0.38
fractional inhibitory concentration index (FICI) (Pseudomonas aeruginosa [36]): 0.56
fractional inhibitory concentration index (FICI) (Pseudomonas aeruginosa [37]): 0.56
fractional inhibitory concentration index (FICI) (Pseudomonas aeruginosa [38]): 0.56
fractional inhibitory concentration index (FICI) (Escherichia coli [39]): 0.5
fractional inhibitory concentration index (FICI) (Escherichia coli [40]): 0.31
fractional inhibitory concentration index (FICI) (Escherichia coli [41]): 0.56
fractional inhibitory concentration index (FICI) (Escherichia coli [42]): 0.31
fractional inhibitory concentration index (FICI) (Escherichia coli [43]): 0.31
